# Results: patent US9517993B2, “Antagonists of the toll-like receptor 1/2 complex” (THE REGENTS OF THE UNIVERSITY OF COLORADO, a body corporate, priority 2012, dated 2016)
# pKi: −log10 of the molar value. “Also recorded” adds a separate entry of the source.
# Key:
# RAW 264.7 cells = experiment: MTT cytotoxicity assay; assay type: cell-based, mouse; conditions: for cytotoxicity: at the active dose, RAW 264.7 cells, MTT
# Protocol: MTT Cytotoxicity Assay. In a 96-well plate 10,000 cells in 200 μL media (RPMI 1640 medium, supplemented with 10% FBS, penicillin (100 U/mL) and streptomycin ([…])) per well. Eight wells were left empty for blank controls. The plates were incubated (37° C., 5% CO2) overnight to allow the cells to attach to the wells. Add 20 ul (5 mg/mL) MTT solution to each well. Place on a shaking table, 150 rpm for 5 minutes, to thoroughly mix the MTT into the media. Incubate (37° C., 5% CO2) for 4 hours to allow the MTT to be metabolized. Dump off the media. Dry plate on paper towels to remove residue. Resuspend formazan (MTT metabolic product) in 200 ul DMSO. Place on a shaking table, 150 rpm for 5 minutes, to thoroughly mix the formazan into the solvent. When a clear difference could be seen by naked eye, results were read by spectrophotometer at 560 nm. Optical density should be directly correlated with cell quantity. Cytotoxicity (%) was determined using the following formula: Cytotoxicity (%) (1−[Compounds (OD560)−Background(OD560)]/[Control (OD560)−Background (OD560)])×100.
# pro-inflammatory mRNA = experiment: In vivo ICM co-administration with Pam3CSK4, hippocampal mRNA by real time RT-PCR; conditions: 5 ng or 50 ng ICM with Pam3CSK4 40 ng; hippocampus 2 hours after injection; listed as CU-CPT22
# Protocol: In vivo testing was conducted by the administration of Pam3CSK4 and CU-CPTP22. CU-CPT22 (5 ng or 50 ng), suspended in 5 μl sterile saline or vehicle, was co-administered with the TLR2 agonist Pam3CSK4 (40 ng/4 μl) to the animal via the cisterna magna (ICM) with a 1 μl air bubble separating the two reagents. Two hours after injection, the animal's hippocampus was collected for pro-inflammatory mRNA analysis using real time RT-PCR procedures. […] (N=8 for each group).
# [1] = tested on: isolated microglial cells; experiment: IL-1β inhibition in isolated microglial cells incubated with Pam3CSK4; assay type: cell-based; conditions: Pam3CSK4 and compound for 2 hours, N=4, listed as CU-CPT22
# Protocol: In vitro testing was conducted using primary cells (isolated microglial cells) incubated with Pam3CSK4 and CU-CPT22 for 2 hours.
# TLR1/2 = TLR1/2 (Homo sapiens, UniProt O60603+Q15399); experiment: Fluorescence anisotropy competition assay with rhodamine-labeled Pam3CSK4; assay type: binding; design: His; TLR2 made in house; host or cells: baculovirus; Sf-9 for virus, High Five insect cells for expression (TLR2)
# Description: The TLR2 protein was expressed in the baculovirus insect cell expression system using the methods described by Kuroki et al. See Iwaki et al., The extracellular Toll-like receptor 2 domain directly binds peptidoglycan derived from Staphylococcus aureus, J. Biol Chem (2002), 277:24315-20, which is herein incorporated by reference in its entirety. The activity of the TLR2 protein was validated by the fluorescence anisotropy assay. […] Good fitting (R2>0.98) inferred that compound 17 and Pam3CSK4 compete for the same binding site on the TLR1/2 dimeric surface.
# In 500 μL Tris buffer (pH=7.2) add 10 μL, (1 ng/mL) rhodamine-labeled Pam3CSK4, test the fluorescence anisotropy at excitation of 549 nm and emission of 566 nm (Horiba Fluorolog 3). And 5 μL (20 μM) TLR1 (R &D) and 5 μL, (20 μM) TLR2 was added into the above buffer, then retest the anisotropy. Following, compound 17 or compound 6 was added in the buffer from the concentration of 0 to 6 μM, and the fluorescence anisotropy was tested in the corresponding concentration.
# Fluorescence polarization experiments were performed at 25° C. using a Horiba Fluorolog-3 fluorometer. For direct binding measurements, serial dilutions of TLR1 (R&D, MN) and TLR2 were made in Tris buffer (pH=7.2), and an aliquot (10 μL) of 1 ng/mL rhodamine labeled Pam3CSK4, was added to a total volume of 500 μL. The competition binding solution was incubated for 30 minutes at 25° C. Serial dilutions of compound 17 or compound 6 were incubated with 20 μM TLR1, 20 μM TLR2 and rhodamine-labeled Pam3CSK4 for 30 min at room temperature.
# Regression analysis was carried out using Origin 7.5 (OriginLab) ligand binding macro module. […] Equation (1): y=min+(max−min)/(1+10^x-logIC50)(total binding, x=log concentration of and rhodamine-labeled Pam3CSK4, min=nonspecific binding, max=maximum binding in absence of ligand). Equation (2): Ki=IC50/(1+[L]/Kd) ([L]=concentration of rhodamine-labeled Pam3CSK4).
# [2] = tested on: TNF-α and IL-1β production; experiment: Cytokine-specific ELISA in Pam3CSK4-activated RAW 264.7 cells; assay type: cell-based, mouse
# Protocol: RAW 264.7 cells were planted in 6-well plates at 1,000,000 cells per well with 3 mL of medium (RPMI 1640 medium, supplemented with 10% FBS, penicillin (100 U/mL) and streptomycin ([…])) and grown for 24 h at 37° C. in a 5% CO2 humidified incubator. After 24 h, non-adherent cells and media were removed and replaced with fresh RPMI 1640 medium (3 mL/well). Two wells of adherent macrophages were treated with Pam3CSK4 (Invivogen, 300 ng/mL) as the positive control, two wells was treated with 8 μM compound 17, and the other two wells ware treated with 8 μM compound DMSO. Another 6 well plate were treated with Pam3CSK4 (Invivogen, 300 ng/mL) and different concentration of 17. Plates were then incubated for an additional 24 h. […] Approximately 400 μL of supernatant were collected into new tubes, frozen at −80° C. until ready for cytokine measurement. The production of the cytokine interleukin-1β (IL-1β) and TNF-α was quantified with enzyme-linked immunosorbent assays (ELISA) using cytokine-specific capture antibodies, biotinylated monoclonal detection antibodies, and recombinant human cytokine standards according to commercially available ELISA kits from R&D Systems. The cytokine level in each sample was determined in duplicate.
# TLR1/2, sequence (Q15399 25-580 limits assumed): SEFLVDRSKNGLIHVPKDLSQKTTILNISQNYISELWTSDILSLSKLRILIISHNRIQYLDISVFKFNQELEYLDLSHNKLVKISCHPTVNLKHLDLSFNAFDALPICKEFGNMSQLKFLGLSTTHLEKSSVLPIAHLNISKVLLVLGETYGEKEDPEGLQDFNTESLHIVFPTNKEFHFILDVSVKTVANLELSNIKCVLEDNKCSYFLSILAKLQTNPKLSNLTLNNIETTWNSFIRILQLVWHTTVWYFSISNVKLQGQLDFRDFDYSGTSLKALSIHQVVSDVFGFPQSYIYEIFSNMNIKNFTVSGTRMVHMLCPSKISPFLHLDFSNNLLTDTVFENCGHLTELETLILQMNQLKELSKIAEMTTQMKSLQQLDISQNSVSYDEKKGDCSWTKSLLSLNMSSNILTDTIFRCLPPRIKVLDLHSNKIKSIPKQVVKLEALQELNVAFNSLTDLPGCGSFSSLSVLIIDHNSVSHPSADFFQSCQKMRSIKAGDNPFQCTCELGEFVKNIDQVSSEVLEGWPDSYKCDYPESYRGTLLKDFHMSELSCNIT
# TLR1/2, sequence (O60603 21-588 limits assumed): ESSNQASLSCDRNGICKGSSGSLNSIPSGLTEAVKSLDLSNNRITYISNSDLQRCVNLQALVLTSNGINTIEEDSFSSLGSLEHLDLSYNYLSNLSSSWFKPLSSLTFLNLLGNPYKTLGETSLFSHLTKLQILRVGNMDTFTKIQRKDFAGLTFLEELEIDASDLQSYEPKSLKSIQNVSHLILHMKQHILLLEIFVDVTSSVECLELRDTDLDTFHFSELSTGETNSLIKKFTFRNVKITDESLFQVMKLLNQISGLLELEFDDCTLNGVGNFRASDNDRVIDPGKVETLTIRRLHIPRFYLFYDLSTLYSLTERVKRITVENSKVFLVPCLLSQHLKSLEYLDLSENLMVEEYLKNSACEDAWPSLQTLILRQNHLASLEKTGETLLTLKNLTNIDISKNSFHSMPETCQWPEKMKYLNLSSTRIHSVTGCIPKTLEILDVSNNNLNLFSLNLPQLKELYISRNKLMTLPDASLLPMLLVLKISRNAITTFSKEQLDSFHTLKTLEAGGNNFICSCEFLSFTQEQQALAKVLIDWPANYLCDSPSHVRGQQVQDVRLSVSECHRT
compound,measurement,setting,value
"CCCCCCOC(=O)c1cc(O)c(=O)c2c(O)c(O)c(OC)cc2c1 [compound 17, Hexyl 3,4,6-trihydroxy-2-methoxy-5-oxo-5H-benzo[7]annulene-8-carboxylate]",cytotoxicity,RAW 264.7 cells,no significant cytotoxicity
same,cytotoxicity,RAW 264.7 cells; listed as CU-CPT22,low toxicity
same,toxicity by MTT assay,RAW 264.7 cells; under 8 μM,no significant toxicity issues
same,IL-6 / M-6 mRNA expression (FIG. 10c),pro-inflammatory mRNA,strongly inhibits; also recorded: strong inhibition
same,TNF-α mRNA expression (FIG. 10b),pro-inflammatory mRNA,strongly inhibits; also recorded: strong inhibition
same,mRNA expression (FIG. 10a),pro-inflammatory mRNA,strongly inhibits; also recorded: strong inhibition
same,inhibition of IL-1β,[1],Dose-dependent inhibition
same,anisotropy of rhodamine-labeled Pam3CSK4 with TLR1/2,TLR1/2; compound concentration increased to 6 μM,decreased the anisotropy to background levels
same,competition with Pam3CSK4 for TLR1/2 (in words),TLR1/2; fluorescence anisotropy,competitive binding
same,pKi,"TLR1/2; rhodamine-labeled Pam3CSK4, one-site competition model, read-out: inhibition constant (Ki), competition with Pam3CSK4 for binding to TLR1/2",6.39
same,TNF-α inhibition (ELISA),"[2]; RAW 264.7, 300 ng/mL Pam3CSK4",TNF-α inhibition
same,IL-1β production (ELISA),"[2]; RAW 264.7, activated by 300 ng/mL Pam3CSK4",inhibited
